{"source": "ChEMBL document CHEMBL5241083", "about": "“Lysophosphatidic acid (LPA) receptor modulators: Structural features and recent development” (Eur J Med Chem, 2021)", "key": {"[1]": {"biological_target": "T1, Lysophosphatidic acid receptor 2 (Homo sapiens, UniProt Q9HBW0)", "T1 sequence (Q9HBW0 whole entry)": "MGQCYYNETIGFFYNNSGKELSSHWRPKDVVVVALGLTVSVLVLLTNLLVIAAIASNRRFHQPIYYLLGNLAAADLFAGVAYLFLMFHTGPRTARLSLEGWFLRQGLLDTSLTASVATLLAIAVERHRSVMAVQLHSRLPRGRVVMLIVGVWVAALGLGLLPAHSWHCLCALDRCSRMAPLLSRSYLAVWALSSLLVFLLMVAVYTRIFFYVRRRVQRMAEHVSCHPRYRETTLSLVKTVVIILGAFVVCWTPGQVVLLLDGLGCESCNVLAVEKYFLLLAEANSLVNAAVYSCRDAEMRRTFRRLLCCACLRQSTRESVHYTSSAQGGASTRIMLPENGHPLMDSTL", "experiment": "Inhibition of LPA2 receptor (unknown origin)"}, "[2]": {"biological_target": "T2, Lysophosphatidic acid receptor 3 (Homo sapiens, UniProt Q9UBY5)", "T2 sequence (Q9UBY5 whole entry)": "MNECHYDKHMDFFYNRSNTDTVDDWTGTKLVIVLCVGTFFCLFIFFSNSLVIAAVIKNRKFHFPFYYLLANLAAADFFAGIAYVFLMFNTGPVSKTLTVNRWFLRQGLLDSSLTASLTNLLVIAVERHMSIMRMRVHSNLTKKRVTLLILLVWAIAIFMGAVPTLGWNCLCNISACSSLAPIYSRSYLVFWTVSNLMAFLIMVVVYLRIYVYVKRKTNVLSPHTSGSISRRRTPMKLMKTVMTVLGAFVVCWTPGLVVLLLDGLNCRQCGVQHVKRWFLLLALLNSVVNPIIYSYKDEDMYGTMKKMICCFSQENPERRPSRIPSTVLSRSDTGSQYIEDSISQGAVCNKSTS", "experiment": "Antagonist activity at human LPA3 receptor", "assay_type": "cell-based, CHO"}, "[3]": {"biological_target": "T3, Lysophosphatidic acid receptor 1 (Homo sapiens, UniProt Q92633)", "T3 sequence (Q92633 whole entry)": "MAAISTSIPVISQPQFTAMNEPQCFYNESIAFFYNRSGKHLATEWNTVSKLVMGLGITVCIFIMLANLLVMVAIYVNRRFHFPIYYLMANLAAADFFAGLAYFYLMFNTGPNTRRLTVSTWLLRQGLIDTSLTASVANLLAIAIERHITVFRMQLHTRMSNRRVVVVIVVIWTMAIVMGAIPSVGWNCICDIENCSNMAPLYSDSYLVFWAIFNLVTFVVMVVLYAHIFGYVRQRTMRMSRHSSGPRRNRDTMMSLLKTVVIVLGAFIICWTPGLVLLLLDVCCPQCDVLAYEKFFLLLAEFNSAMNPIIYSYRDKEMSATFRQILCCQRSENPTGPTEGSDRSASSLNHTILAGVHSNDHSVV", "experiment": "Antagonist activity at human LPA1 receptor expressed in CHO cells", "assay_type": "cell-based"}, "[4]": {"biological_target": "T3, Lysophosphatidic acid receptor 1", "experiment": "Antagonist activity at human LPA1 receptor"}, "HEK-293T": {"system": "HEK-293T", "experiment": "Antiproliferative activity against human HEK293T cells assessed as inhibition of cell growth", "assay_type": "functional, cell-based"}, "[5]": {"biological_target": "T1, Lysophosphatidic acid receptor 2", "experiment": "Antagonist activity at human LPA2 receptor assessed as inhibition of LPA-induced calcium release"}, "[6]": {"biological_target": "T4, Lysophosphatidic acid receptor 5 (Homo sapiens, UniProt Q9H1C0)", "T4 sequence (Q9H1C0 whole entry)": "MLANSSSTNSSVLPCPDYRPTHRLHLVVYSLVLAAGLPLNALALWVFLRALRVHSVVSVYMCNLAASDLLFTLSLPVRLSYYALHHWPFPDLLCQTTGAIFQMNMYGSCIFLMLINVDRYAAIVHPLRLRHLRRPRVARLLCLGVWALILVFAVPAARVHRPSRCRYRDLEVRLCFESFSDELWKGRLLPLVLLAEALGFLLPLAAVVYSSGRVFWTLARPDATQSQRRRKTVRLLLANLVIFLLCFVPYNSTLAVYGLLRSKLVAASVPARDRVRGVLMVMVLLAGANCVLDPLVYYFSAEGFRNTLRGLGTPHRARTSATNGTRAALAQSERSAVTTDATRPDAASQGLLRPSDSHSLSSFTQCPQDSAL", "experiment": "Antagonist activity at human LPA5 receptor by FLIPR analysis"}, "[7]": {"biological_target": "T1, Lysophosphatidic acid receptor 2", "experiment": "Antagonist activity at LPA2 receptor (unknown origin)"}, "[8]": {"biological_target": "T4, Lysophosphatidic acid receptor 5", "experiment": "Antagonist activity at human LPA5 receptor expressed in CHO cells assessed as inhibition of LPA stimulated calcium release incubated for 20 mins followed by […] and measured for 90 seconds", "assay_type": "cell-based"}, "[9]": {"biological_target": "T4, Lysophosphatidic acid receptor 5", "experiment": "Antagonist activity at human LPA5 receptor assessed as inhibition of […] cAMP accumulation incubated for 20 mins"}, "[10]": {"biological_target": "T3, Lysophosphatidic acid receptor 1", "experiment": "Antagonist activity at LPA1 receptor (unknown origin) assessed as inhibition constant"}}}
{"smiles": "O=C(Nc1nc2cc(Cl)ccc2[nH]1)C1CC1c1ccccc1", "note": "(stereo not given)", "values": [{"measurement": "IC50", "setting": "[1]", "result": 10, "unit": "nM"}]}
{"smiles": "CC(OC(=O)Nc1c(-c2ccc(-c3ccc(C4(C(=O)O)CC4)cc3)cc2)oc2cnccc12)c1ccccc1", "note": "(stereo not given)", "values": [{"measurement": "EC50", "setting": "[2]", "result": "< 50", "unit": "nM"}, {"measurement": "EC50", "setting": "[3]", "result": "< 50", "unit": "nM"}]}
{"smiles": "COc1ccc(C(=O)NC2(C(=O)O)CCCCCC2)cc1OCCc1cccc(Cl)c1", "values": [{"measurement": "IC50", "setting": "[4]", "result": 100, "unit": "nM"}]}
{"smiles": "COc1ccc(C(=O)NC2(C(=O)O)CC3CCC(C3)C2)cc1OCCc1cccc(C)c1", "note": "(stereo not given)", "values": [{"measurement": "IC50", "setting": "[4]", "result": 100, "unit": "nM"}]}
{"smiles": "CSc1ccc(C(=O)NC2(C(=O)O)Cc3ccccc3C2)cc1OCCc1cccc(C)c1", "values": [{"measurement": "IC50", "setting": "[4]", "result": 100, "unit": "nM"}]}
{"smiles": "CCCCCCCC/C=C/CCCCCCCC(=O)N[C@H](COP(=O)(O)O)Cc1ccc(OCc2ccccc2)cc1", "values": [{"measurement": "IC50", "setting": "HEK-293T", "result": 130, "unit": "nM"}]}
{"smiles": "Cc1noc(-c2ccc(-c3ccc(CC(=O)O)c4c3CCC4)cc2)c1NC(=O)OC(C)c1ccccc1Cl", "note": "(stereo not given)", "values": [{"measurement": "EC50", "setting": "[2]", "result": "< 50", "unit": "nM"}, {"measurement": "EC50", "setting": "[3]", "result": "< 50", "unit": "nM"}]}
{"smiles": "COc1ccc(C(=O)NC2(C(=O)O)CCC(C)C2)cc1OCCc1cccc(C)c1", "note": "(stereo not given)", "values": [{"measurement": "IC50", "setting": "[4]", "result": 100, "unit": "nM"}]}
{"smiles": "CCC1CC1(NC(=O)c1ccc(OC)c(OCCc2cccc(C)c2)c1)C(=O)O", "note": "(stereo not given)", "values": [{"measurement": "IC50", "setting": "[4]", "result": 100, "unit": "nM"}]}
{"smiles": "O=C1CC(O)(C(F)(F)F)c2c(-c3ccccc3)n[nH]c2N1", "note": "(stereo not given)", "values": [{"measurement": "IC50", "setting": "[5]", "result": "< 1000", "unit": "nM"}]}
{"smiles": "O=C1CC(O)(C(F)(F)F)c2c(-c3ccncc3)n[nH]c2N1", "note": "(stereo not given)", "values": [{"measurement": "IC50", "setting": "[5]", "result": "< 1000", "unit": "nM"}]}
{"smiles": "O=C1CC(O)(C(F)(F)F)c2c(-c3ccc(F)cc3)n[nH]c2N1", "note": "(stereo not given)", "values": [{"measurement": "IC50", "setting": "[5]", "result": "< 1000", "unit": "nM"}]}
{"smiles": "Cc1c(COC(C)(C)C(=O)NCc2ccc(C(=O)O)cc2)nn(-c2ccc(Cl)cc2Cl)c1-c1ccc(C(F)(F)F)cc1", "values": [{"measurement": "IC50", "setting": "[6]", "result": 30, "unit": "nM"}]}
{"smiles": "COc1ccc(-c2n[nH]c3c2C(O)(C(F)(F)F)CC(=O)N3)cc1", "note": "(stereo not given)", "values": [{"measurement": "IC50", "setting": "[5]", "result": "< 1000", "unit": "nM"}]}
{"smiles": "O=C1CC(O)(C(F)(F)F)c2c(-c3cccc(C(F)(F)F)c3)n[nH]c2N1", "note": "(stereo not given)", "values": [{"measurement": "IC50", "setting": "[5]", "result": "< 1000", "unit": "nM"}]}
{"smiles": "CC(OC(=O)Nc1c(-c2ccc(-c3ccc(C4(C(=O)O)CC4)cc3)cc2)oc2cnccc12)c1ccccc1Cl", "note": "(stereo not given)", "values": [{"measurement": "EC50", "setting": "[2]", "result": "< 50", "unit": "nM"}, {"measurement": "EC50", "setting": "[3]", "result": "< 50", "unit": "nM"}]}
{"smiles": "Cc1cccc(CN2C(C)CCCC2c2cc3cc(F)ccc3[nH]2)c1", "note": "(stereo not given)", "values": [{"measurement": "IC50", "setting": "[7]", "result": "< 500", "unit": "nM"}]}
{"smiles": "O=C(Nc1nc2cc(C(F)(F)F)ccc2[nH]1)C1CC1c1ccccc1", "note": "(stereo not given)", "values": [{"measurement": "IC50", "setting": "[1]", "result": 10, "unit": "nM"}]}
{"smiles": "Cc1c(COC(C)(C)C(=O)NCc2ccc(C(=O)O)cc2)nn(-c2ccccc2Cl)c1-c1ccc(C(F)(F)F)cc1", "values": [{"measurement": "IC50", "setting": "[6]", "result": 1300, "unit": "nM"}]}
{"smiles": "Cc1ccc(-c2n[nH]c3c2C(O)(C(F)(F)F)CC(=O)N3)cc1", "note": "(stereo not given)", "values": [{"measurement": "IC50", "setting": "[5]", "result": "< 1000", "unit": "nM"}]}
{"smiles": "O=C1CC(O)(C(F)(F)F)c2c(-c3cccc(Br)c3)n[nH]c2N1", "note": "(stereo not given)", "values": [{"measurement": "IC50", "setting": "[5]", "result": "< 1000", "unit": "nM"}]}
{"smiles": "COc1cc(C(=O)N(CCCc2ccccc2)Cc2ccc(Oc3ccccc3C(=O)O)cc2)cc(OC)c1OC", "values": [{"measurement": "IC50", "setting": "[4]", "result": 110, "unit": "nM"}]}
{"smiles": "Cc1cccc(C2CC2C(=O)Nc2nc3ccccc3[nH]2)c1", "note": "(stereo not given)", "values": [{"measurement": "IC50", "setting": "[1]", "result": 10, "unit": "nM"}]}
{"smiles": "O=C1CC(O)(C(F)(F)F)c2c(-c3cccc(F)c3)n[nH]c2N1", "note": "(stereo not given)", "values": [{"measurement": "IC50", "setting": "[5]", "result": "< 1000", "unit": "nM"}]}
{"smiles": "Cc1c(COC(C)(C)C(=O)NCc2ccc(C(=O)O)cc2)nn(-c2ccc(Cl)cc2Cl)c1-c1ccc(Cl)cc1", "values": [{"measurement": "IC50", "setting": "[6]", "result": 1300, "unit": "nM"}, {"measurement": "IC50", "setting": "[8]", "result": 2900, "unit": "nM"}]}
{"smiles": "COc1ccc(C(=O)NC2(C(=O)O)CCCCCC2)cc1OCCc1cc(Cl)ccc1F", "values": [{"measurement": "IC50", "setting": "[4]", "result": 100, "unit": "nM"}]}
{"smiles": "O=C(Nc1nc2ccccc2[nH]1)C1CC1c1ccccc1Cl", "note": "(stereo not given)", "values": [{"measurement": "IC50", "setting": "[1]", "result": 10, "unit": "nM"}]}
{"smiles": "O=C(Nc1nc2ccccc2[nH]1)C1CC1c1ccccc1", "note": "(stereo not given)", "values": [{"measurement": "IC50", "setting": "[1]", "result": "< 10", "unit": "nM"}]}
{"smiles": "O=C1CC(O)(C(F)(F)F)c2c(-c3cccs3)n[nH]c2N1", "note": "(stereo not given)", "values": [{"measurement": "IC50", "setting": "[5]", "result": "< 1000", "unit": "nM"}]}
{"smiles": "COc1cccc(-c2n[nH]c3c2C(O)(C(F)(F)F)CC(=O)N3)c1", "note": "(stereo not given)", "values": [{"measurement": "IC50", "setting": "[5]", "result": "< 1000", "unit": "nM"}]}
{"smiles": "Fc1ccc(CN2CCCCC2c2cc3ccccc3[nH]2)cc1", "note": "(stereo not given)", "values": [{"measurement": "IC50", "setting": "[7]", "result": "< 500", "unit": "nM"}]}
{"smiles": "CCN1CCCc2ccc(-n3cc(C(=O)N4CCCCC4)c4cc(OC)c(OC)cc4c3=O)cc21", "values": [{"measurement": "IC50", "setting": "[9]; filed as antagonist", "result": 38, "unit": "nM"}]}
{"smiles": "COc1cc2c(C(=O)N3CCCCC3)cn(-c3noc4ccc(C)cc34)c(=O)c2cc1OC", "values": [{"measurement": "IC50", "setting": "[9]", "result": 38, "unit": "nM"}]}
{"smiles": "O=C1CC(O)(C(F)(F)F)c2c(-c3cccc(Cl)c3)n[nH]c2N1", "note": "(stereo not given)", "values": [{"measurement": "IC50", "setting": "[5]", "result": "< 1000", "unit": "nM"}]}
{"smiles": "Cc1cccc(CN2CCCCC2c2cc3ccccc3[nH]2)c1", "note": "(stereo not given)", "values": [{"measurement": "IC50", "setting": "[7]", "result": "< 500", "unit": "nM"}]}
{"smiles": "CC1=C(NC(=O)OC(C)c2ccccc2Cl)C(c2ccc(CSCCC(=O)O)cc2)ON1", "note": "(stereo not given)", "values": [{"measurement": "Ki", "setting": "[10]", "result": 6420, "unit": "nM"}]}
